Reference: ChEMBL document CHEMBL4879554, “Data for DCP probe GNE-2256” (2021)

Key:
[1] = target: Ephrin type-A receptor 1 (Homo sapiens) (UniProt P21709); assay: EphA1 Kinase panel; conditions: Compound concentration 1.0 uM
[2] = target: Proto-oncogene tyrosine-protein kinase receptor Ret (Homo sapiens) (UniProt P07949); assay: Ret Kinase panel; conditions: Compound concentration 1.0 uM
[3] = target: G protein-coupled receptor kinase 5 (Homo sapiens) (UniProt P34947); assay: GRK5 Kinase panel; conditions: Compound concentration 1.0 uM
[4] = target: Serine/threonine-protein kinase PAK 3 (Homo sapiens) (UniProt O75914); assay: PAK3 Kinase panel; conditions: Compound concentration 1.0 uM
[5] = target: Cyclin-dependent kinase 1/cyclin B (Homo sapiens) (UniProt P06493+P14635+Q8WWL7+O95067); assay: CDK1/cyclinB Kinase panel; type: protein-complex assay; conditions: Compound concentration 1.0 uM
[6] = target: Serine/threonine-protein kinase PAK 1 (Homo sapiens) (UniProt Q13153); assay: PAK1 Kinase panel; conditions: Compound concentration 1.0 uM
[7] = target: Histamine H1 receptor (Homo sapiens) (UniProt P35367); conditions: Compound concentration 10.0 uM
[8] = target: Serine/threonine-protein kinase Sgk3 (Homo sapiens) (UniProt Q96BR1); assay: SGK3 Kinase panel; conditions: Compound concentration 1.0 uM
[9] = target: Tyrosine-protein kinase receptor TYRO3 (Homo sapiens) (UniProt Q06418); assay: Rse Kinase panel; conditions: Compound concentration 1.0 uM
Tyrosine-protein kinase receptor TYRO3 (Homo sapiens), sequence (Q06418 whole entry): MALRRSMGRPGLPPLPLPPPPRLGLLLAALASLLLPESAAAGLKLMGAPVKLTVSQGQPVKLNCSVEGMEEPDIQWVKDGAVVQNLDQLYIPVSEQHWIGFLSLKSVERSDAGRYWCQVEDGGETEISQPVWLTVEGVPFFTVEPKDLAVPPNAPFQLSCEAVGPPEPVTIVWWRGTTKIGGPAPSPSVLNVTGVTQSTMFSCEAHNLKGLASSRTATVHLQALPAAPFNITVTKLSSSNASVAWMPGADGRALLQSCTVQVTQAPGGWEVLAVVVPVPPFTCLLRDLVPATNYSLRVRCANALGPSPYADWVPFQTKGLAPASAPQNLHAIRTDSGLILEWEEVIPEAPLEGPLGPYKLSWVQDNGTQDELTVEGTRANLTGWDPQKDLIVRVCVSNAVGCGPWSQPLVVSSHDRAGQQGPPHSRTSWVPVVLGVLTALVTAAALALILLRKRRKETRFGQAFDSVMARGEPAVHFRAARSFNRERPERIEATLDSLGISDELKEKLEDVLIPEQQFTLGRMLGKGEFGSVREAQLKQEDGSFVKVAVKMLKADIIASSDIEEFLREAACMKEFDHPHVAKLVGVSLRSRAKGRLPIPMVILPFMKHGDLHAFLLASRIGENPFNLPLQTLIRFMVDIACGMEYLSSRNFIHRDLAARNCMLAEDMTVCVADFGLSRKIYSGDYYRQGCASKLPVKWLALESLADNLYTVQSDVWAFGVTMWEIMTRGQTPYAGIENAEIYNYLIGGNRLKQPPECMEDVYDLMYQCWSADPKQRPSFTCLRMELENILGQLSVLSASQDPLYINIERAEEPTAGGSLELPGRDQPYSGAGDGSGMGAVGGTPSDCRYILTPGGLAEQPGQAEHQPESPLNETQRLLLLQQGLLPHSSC

[10] = target: Mitogen-activated protein kinase kinase kinase 9 (Homo sapiens) (UniProt P80192); assay: MLK1 Kinase panel; conditions: Compound concentration 1.0 uM
[11] = target: Phosphorylase b kinase gamma catalytic chain, skeletal muscle/heart isoform (Homo sapiens) (UniProt Q16816); assay: PhK_gamma1 Kinase panel; conditions: Compound concentration 1.0 uM
[12] = target: Insulin receptor (Homo sapiens) (UniProt P06213); assay: InsR Kinase panel; conditions: Compound concentration 1.0 uM
Insulin receptor (Homo sapiens), sequence (P06213 28-758 limits assumed): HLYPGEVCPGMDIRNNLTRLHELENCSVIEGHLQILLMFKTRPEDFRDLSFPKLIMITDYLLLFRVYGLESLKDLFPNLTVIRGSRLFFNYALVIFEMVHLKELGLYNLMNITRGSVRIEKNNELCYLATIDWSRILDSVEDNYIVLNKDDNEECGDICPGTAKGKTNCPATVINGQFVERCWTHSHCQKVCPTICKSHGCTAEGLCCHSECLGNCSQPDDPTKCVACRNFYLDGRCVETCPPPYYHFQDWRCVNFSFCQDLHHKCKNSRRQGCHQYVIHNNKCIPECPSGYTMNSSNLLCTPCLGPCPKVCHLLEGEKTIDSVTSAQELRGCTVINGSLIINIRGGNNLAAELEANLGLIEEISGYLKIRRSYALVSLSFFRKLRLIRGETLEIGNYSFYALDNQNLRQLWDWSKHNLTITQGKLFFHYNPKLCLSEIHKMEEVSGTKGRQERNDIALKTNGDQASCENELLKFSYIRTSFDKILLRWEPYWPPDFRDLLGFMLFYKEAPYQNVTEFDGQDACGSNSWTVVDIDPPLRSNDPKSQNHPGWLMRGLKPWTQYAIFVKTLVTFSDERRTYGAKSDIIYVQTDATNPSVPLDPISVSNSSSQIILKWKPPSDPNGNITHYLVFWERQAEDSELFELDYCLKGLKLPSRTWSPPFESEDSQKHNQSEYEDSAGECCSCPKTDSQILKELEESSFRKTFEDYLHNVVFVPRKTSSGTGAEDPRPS
Insulin receptor (Homo sapiens), sequence (P06213 763-1382 limits assumed): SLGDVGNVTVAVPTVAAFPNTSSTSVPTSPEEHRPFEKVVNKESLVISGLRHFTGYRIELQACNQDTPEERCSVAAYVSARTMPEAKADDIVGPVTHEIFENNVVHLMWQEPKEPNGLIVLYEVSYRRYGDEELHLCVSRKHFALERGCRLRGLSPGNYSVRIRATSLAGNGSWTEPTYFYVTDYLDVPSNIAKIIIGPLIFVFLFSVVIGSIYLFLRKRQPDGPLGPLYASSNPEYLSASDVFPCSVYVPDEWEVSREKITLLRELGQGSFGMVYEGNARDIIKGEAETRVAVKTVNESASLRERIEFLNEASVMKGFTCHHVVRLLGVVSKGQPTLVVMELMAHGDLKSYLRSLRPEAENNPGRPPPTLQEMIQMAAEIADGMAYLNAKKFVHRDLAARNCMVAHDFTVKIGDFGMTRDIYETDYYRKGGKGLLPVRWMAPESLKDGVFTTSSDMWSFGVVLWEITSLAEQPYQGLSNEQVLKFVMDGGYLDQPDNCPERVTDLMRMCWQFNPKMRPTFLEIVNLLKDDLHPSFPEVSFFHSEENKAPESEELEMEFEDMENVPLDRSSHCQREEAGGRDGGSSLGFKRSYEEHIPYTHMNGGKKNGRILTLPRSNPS

[13] = target: Delta-type opioid receptor (Homo sapiens) (UniProt P41143); conditions: Compound concentration 10.0 uM
[14] = target: Sodium-dependent noradrenaline transporter (Homo sapiens) (UniProt P23975); conditions: Compound concentration 10.0 uM
Sodium-dependent noradrenaline transporter (Homo sapiens), sequence (P23975 whole entry): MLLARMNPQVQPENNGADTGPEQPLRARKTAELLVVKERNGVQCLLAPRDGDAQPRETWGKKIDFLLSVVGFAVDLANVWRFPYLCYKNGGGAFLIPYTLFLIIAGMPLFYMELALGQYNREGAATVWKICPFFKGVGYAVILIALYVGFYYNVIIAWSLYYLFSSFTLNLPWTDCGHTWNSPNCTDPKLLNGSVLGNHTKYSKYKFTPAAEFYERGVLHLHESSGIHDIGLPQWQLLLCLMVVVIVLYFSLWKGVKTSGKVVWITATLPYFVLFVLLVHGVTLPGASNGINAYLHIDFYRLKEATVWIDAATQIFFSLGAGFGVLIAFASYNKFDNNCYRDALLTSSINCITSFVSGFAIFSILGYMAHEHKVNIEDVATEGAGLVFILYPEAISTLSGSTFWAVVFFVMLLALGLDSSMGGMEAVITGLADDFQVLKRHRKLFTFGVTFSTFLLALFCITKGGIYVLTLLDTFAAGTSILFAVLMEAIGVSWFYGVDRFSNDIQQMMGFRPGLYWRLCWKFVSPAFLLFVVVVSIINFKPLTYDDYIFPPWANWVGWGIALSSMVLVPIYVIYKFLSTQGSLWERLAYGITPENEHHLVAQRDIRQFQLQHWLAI

[15] = target: Cytoplasmic tyrosine-protein kinase BMX (Homo sapiens) (UniProt P51813); assay: Bmx Kinase panel; conditions: Compound concentration 1.0 uM
[16] = target: Tyrosine-protein kinase FRK (Homo sapiens) (UniProt P42685); assay: Frk Kinase panel; conditions: Compound concentration 1.0 uM
[17] = target: Tyrosine-protein kinase Blk (Homo sapiens) (UniProt P51451); assay: Blk Kinase panel; conditions: Compound concentration 1.0 uM
[18] = target: Mitogen-activated protein kinase 14 (Homo sapiens) (UniProt Q16539); assay: p38_alpha(direct) Kinase panel; conditions: Compound concentration 1.0 uM
[19] = target: Cyclin-dependent kinase 5/CDK5 activator 1 (Homo sapiens) (UniProt Q00535+Q15078); assay: CDK5/p25 Kinase panel; type: protein-complex assay; conditions: Compound concentration 1.0 uM
[20] = target: Beta-3 adrenergic receptor (Homo sapiens) (UniProt P13945); conditions: Compound concentration 10.0 uM
[21] = target: cAMP-dependent protein kinase catalytic subunit PRKX (Homo sapiens) (UniProt P51817); assay: PrKX Kinase panel; conditions: Compound concentration 1.0 uM
[22] = target: Serine/threonine-protein kinase 26 (Homo sapiens) (UniProt Q9P289); assay: MST4 Kinase panel; conditions: Compound concentration 1.0 uM
[23] = target: Mitogen-activated protein kinase kinase kinase 8 (Homo sapiens) (UniProt P41279); assay: Cot Kinase panel; conditions: Compound concentration 1.0 uM
[24] = target: PAS domain-containing serine/threonine-protein kinase (Homo sapiens) (UniProt Q96RG2); assay: PASK Kinase panel; conditions: Compound concentration 1.0 uM
[25] = target: Serine/threonine-protein kinase 17A (Homo sapiens) (UniProt Q9UEE5); assay: DRAK1 Kinase panel; conditions: Compound concentration 1.0 uM
Serine/threonine-protein kinase 17A (Homo sapiens), sequence (Q9UEE5 whole entry): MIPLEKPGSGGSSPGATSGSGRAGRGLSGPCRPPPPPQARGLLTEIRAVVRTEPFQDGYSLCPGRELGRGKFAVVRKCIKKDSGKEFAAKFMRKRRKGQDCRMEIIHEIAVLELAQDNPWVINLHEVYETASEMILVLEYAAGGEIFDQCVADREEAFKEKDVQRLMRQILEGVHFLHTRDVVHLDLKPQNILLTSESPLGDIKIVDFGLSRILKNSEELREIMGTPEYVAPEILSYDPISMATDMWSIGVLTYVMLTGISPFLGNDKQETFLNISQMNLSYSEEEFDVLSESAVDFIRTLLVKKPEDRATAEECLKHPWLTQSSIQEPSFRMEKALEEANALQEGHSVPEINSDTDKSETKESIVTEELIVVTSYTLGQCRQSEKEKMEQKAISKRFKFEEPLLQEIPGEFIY

Homo sapiens = organism: Homo sapiens; assay: (§1) TAK1-TAB1 Kinase panel; conditions: Compound concentration 1.0 uM
[26] = as §1; design: species or system Homo sapiens
[27] = target: Protein kinase C eta type (Homo sapiens) (UniProt P24723); assay: PKC_eta Kinase panel; conditions: Compound concentration 1.0 uM
[28] = target: Alpha-1D adrenergic receptor (Homo sapiens) (UniProt P25100); conditions: Compound concentration 10.0 uM
[29] = target: Muscarinic acetylcholine receptor M5 (Homo sapiens) (UniProt P08912); conditions: Compound concentration 10.0 uM
[30] = target: Tyrosine-protein kinase Srms (Homo sapiens) (UniProt Q9H3Y6); assay: Srm Kinase panel; conditions: Compound concentration 1.0 uM
[31] = target: Activin receptor type-2B (Homo sapiens) (UniProt Q13705); assay: ACVR2B Kinase panel; conditions: Compound concentration 1.0 uM
[32] = target: Serine/threonine-protein kinase B-raf (Homo sapiens) (UniProt P15056); assay: B-Raf Kinase panel; conditions: Compound concentration 1.0 uM
Serine/threonine-protein kinase B-raf (Homo sapiens), sequence (P15056 whole entry): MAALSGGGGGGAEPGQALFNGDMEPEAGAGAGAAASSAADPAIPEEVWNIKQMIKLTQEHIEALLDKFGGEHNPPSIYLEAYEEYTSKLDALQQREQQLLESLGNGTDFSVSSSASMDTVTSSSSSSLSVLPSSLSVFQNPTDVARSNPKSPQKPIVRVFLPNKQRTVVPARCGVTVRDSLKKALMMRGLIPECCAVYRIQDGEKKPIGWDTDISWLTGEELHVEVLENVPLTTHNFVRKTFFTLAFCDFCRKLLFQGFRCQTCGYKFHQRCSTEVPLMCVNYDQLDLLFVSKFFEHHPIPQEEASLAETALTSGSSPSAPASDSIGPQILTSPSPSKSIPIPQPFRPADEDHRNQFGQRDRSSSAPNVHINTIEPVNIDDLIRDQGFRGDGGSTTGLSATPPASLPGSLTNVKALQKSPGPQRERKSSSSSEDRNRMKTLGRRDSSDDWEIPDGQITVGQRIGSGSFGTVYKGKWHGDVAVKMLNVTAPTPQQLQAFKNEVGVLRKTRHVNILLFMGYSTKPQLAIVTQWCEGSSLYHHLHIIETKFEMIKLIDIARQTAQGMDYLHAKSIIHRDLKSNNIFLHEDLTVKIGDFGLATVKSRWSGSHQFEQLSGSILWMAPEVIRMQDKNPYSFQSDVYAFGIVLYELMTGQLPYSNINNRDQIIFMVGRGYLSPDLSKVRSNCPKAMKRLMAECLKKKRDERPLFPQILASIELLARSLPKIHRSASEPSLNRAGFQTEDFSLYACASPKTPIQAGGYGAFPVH

[33] = target: Receptor-type tyrosine-protein kinase FLT3 (Homo sapiens) (UniProt P36888); assay: Flt3 Kinase panel; conditions: Compound concentration 1.0 uM
[34] = target: Mitogen-activated protein kinase 12 (Homo sapiens) (UniProt P53778); assay: p38_gamma Kinase panel; conditions: Compound concentration 1.0 uM
[35] = target: Dual specificity tyrosine-phosphorylation-regulated kinase 4 (Homo sapiens) (UniProt Q9NR20); assay: DYRK4 Kinase panel; conditions: Compound concentration 1.0 uM
[36] = target: Sigma intracellular receptor 2 (Homo sapiens) (UniProt Q5BJF2); conditions: Compound concentration 10.0 uM
[37] = target: 5-hydroxytryptamine receptor 2C (Homo sapiens) (UniProt P28335); conditions: Compound concentration 10.0 uM
[38] = target: Dual specificity protein kinase CLK4 (Homo sapiens) (UniProt Q9HAZ1); assay: CLK4 Kinase panel; conditions: Compound concentration 1.0 uM
Dual specificity protein kinase CLK4 (Homo sapiens), sequence (Q9HAZ1 whole entry, looked up): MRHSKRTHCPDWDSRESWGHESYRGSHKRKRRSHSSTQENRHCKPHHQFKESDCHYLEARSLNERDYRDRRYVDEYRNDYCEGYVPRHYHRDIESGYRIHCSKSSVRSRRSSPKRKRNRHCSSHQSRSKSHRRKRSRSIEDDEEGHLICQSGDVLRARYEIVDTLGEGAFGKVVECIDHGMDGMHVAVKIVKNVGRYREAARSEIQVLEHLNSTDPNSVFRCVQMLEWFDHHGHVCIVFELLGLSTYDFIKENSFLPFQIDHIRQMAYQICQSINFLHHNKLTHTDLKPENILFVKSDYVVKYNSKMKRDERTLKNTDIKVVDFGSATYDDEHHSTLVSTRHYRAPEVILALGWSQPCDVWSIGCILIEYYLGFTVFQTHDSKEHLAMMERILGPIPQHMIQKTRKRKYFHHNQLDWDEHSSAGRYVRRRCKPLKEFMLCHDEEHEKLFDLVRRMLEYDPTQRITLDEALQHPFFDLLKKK

[39] = target: G protein-coupled receptor kinase 6 (Homo sapiens) (UniProt P43250); assay: GRK6 Kinase panel; conditions: Compound concentration 1.0 uM
[40] = target: Calcium/calmodulin-dependent protein kinase type IV (Homo sapiens) (UniProt Q16566); assay: CamKIV Kinase panel; conditions: Compound concentration 1.0 uM
[41] = target: 5-hydroxytryptamine receptor 3A (Homo sapiens) (UniProt P46098); conditions: Compound concentration 10.0 uM
[42] = target: Mast/stem cell growth factor receptor Kit (Homo sapiens) (UniProt P10721); assay: Kit Kinase panel; conditions: Compound concentration 1.0 uM
[43] = target: Dual specificity tyrosine-phosphorylation-regulated kinase 1A (Homo sapiens) (UniProt Q13627); assay: DYRK1A Kinase panel; conditions: Compound concentration 1.0 uM
[44] = target: Mitogen-activated protein kinase 11 (Homo sapiens) (UniProt Q15759); assay: p38_beta Kinase panel; conditions: Compound concentration 1.0 uM
[45] = target: Phosphatidylinositol 4,5-bisphosphate 3-kinase catalytic subunit gamma isoform (Homo sapiens) (UniProt P48736); assay: PI3KG Kinase panel; conditions: Compound concentration 1.0 uM
[46] = target: RAC-beta serine/threonine-protein kinase (Homo sapiens) (UniProt P31751); assay: AKT2 Kinase panel; conditions: Compound concentration 1.0 uM
[47] = target: Serine/threonine-protein kinase 24 (Homo sapiens) (UniProt Q9Y6E0); assay: MST3 Kinase panel; conditions: Compound concentration 1.0 uM
[48] = target: Serine/threonine-protein kinase WNK2 (Homo sapiens) (UniProt Q9Y3S1); assay: WNK2 Kinase panel; conditions: Compound concentration 1.0 uM
[49] = target: RAC-alpha serine/threonine-protein kinase (Homo sapiens) (UniProt P31749); assay: AKT1 Kinase panel; conditions: Compound concentration 1.0 uM
RAC-alpha serine/threonine-protein kinase (Homo sapiens), sequence (P31749 whole entry): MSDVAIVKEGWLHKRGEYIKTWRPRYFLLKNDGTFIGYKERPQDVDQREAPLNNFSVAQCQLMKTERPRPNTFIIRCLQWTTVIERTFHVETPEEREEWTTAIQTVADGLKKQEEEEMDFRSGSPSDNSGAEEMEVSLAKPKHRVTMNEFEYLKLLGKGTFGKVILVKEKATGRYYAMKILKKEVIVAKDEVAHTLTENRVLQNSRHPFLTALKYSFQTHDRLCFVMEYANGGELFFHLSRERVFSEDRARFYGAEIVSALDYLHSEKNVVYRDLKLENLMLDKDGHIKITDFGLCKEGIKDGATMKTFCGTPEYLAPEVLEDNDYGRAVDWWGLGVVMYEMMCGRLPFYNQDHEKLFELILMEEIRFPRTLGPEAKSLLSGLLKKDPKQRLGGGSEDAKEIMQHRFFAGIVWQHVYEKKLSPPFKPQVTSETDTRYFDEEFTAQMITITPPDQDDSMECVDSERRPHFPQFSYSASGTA

[50] = target: Tyrosine-protein kinase ZAP-70 (Homo sapiens) (UniProt P43403); assay: ZAP-70 Kinase panel; conditions: Compound concentration 1.0 uM
[51] = target: STE20-like serine/threonine-protein kinase (Homo sapiens) (UniProt Q9H2G2); assay: SLK Kinase panel; conditions: Compound concentration 1.0 uM
[52] = target: Dual specificity protein kinase CLK3 (Homo sapiens) (UniProt P49761); assay: CLK3 Kinase panel; conditions: Compound concentration 1.0 uM
[53] = target: Beta-2 adrenergic receptor (Homo sapiens) (UniProt P07550); conditions: Compound concentration 10.0 uM

Compound: CC(C)(O)[C@H](F)CN1Cc2cc(NC(=O)c3cnn4cccnc34)c(N3CCOCC3)cc2C1=O
- inhibition [1]: 20.8%
- inhibition [2]: 31.5%
- inhibition [3]: -2%
- inhibition [4]: 2%
- inhibition [5]: 2.5%
- inhibition [6]: 9%
- inhibition [7]: 17.7%
- inhibition [8]: -0.5%
- inhibition [9]: 18%
- inhibition [10]: 14%
- inhibition [11]: 18.5%
- inhibition [12]: 34.5%
- inhibition [13]: -7.48%
- inhibition [14]: 2.12%
- inhibition [15]: 33.3%
- inhibition [16]: 5.5%
- inhibition [17]: 37.5%
- inhibition [18]: 4%
- inhibition [19]: 9%
- inhibition [20]: 11.2%
- inhibition [21]: -2.5%
- inhibition [22]: 2%
- inhibition [23]: 3%
- inhibition [24]: -6.5%
- inhibition [25]: 11.5%
- inhibition (Homo sapiens): 74.5%
- IC50 [26]: 966 nM
- inhibition [27]: 8%
- inhibition [28]: 6.71%
- inhibition [29]: -6.7%
- inhibition [30]: 16%
- inhibition [31]: 12.5%
- inhibition [32]: -0.5%
- inhibition [33]: 90.8%
- inhibition [34]: 0.5%
- inhibition [35]: -5%
- inhibition [36]: -0.93%
- inhibition [37]: 1.26%
- inhibition [38]: 47.8%
- inhibition [39]: 3.5%
- inhibition [40]: -6%
- inhibition [41]: -0.18%
- inhibition [42]: 3%
- inhibition [43]: 2%
- inhibition [44]: 4%
- inhibition [45]: 46.5%
- inhibition [46]: 7.5%
- inhibition [47]: 5.5%
- inhibition [48]: 2.5%
- inhibition [49]: 0.5%
- inhibition [50]: -6.5%
- inhibition [51]: 4%
- inhibition [52]: 10%
- inhibition [53]: 3.53%
